Experimental data reported in US4421687A, “Macbecin derivatives” (priority 1981, dated 1983).
≈ marks a conversion by molar mass, not a printed value.

Key:
Bacillus subtilis = assay: antibacterial activity (MIC) against Bacillus subtilis; format: cell-based
Staphylococcus aureus = assay: antibacterial activity (MIC) against Staphylococcus aureus; format: cell-based
[1] = acute toxicity (LD50), mouse, intraperitoneal; format: in vivo

Row | Compound | MIC (Bacillus subtilis) [µg/mL] | MIC (Staphylococcus aureus) [µg/mL] | LD50 ([1]; in vivo, ip, intraperitoneal, acute toxicity) [mg/kg] | acute toxicity as compared with Macbecin I and II ([1]; intraperitoneal, compared with Macbecin I and II) | acute toxicity (in words) ([1]; ip, conclusion from the LD50)
1 | COC1CC(C)C(OC)c2cc(O)cc(c2O)NC(=O)C(C)=CC=CC(C)C(OC(N)=O)C(C)=CC(C)C1O (centres unmarked) [E-3-R] | 50 to 100 (≈ 91.5 to 183 µM) | 50 to 100 (≈ 91.5 to 183 µM) |  |  | 
2 | COC1CC(C)C(OC)C2=CC(=O)C=C(NC(=O)C(C)=CC=CC(C)C(OC(N)=O)C(C)=CC(C)C1O)C2=O (centres unmarked) [E-3] | 50 to 100 (≈ 91.8 to 184 µM) | 50 to 100 (≈ 91.8 to 184 µM) |  |  | 
3 | COC1c2cc(O)cc(c2O)NC(=O)/C(C)=C/C=C\C(C)C(OC(N)=O)/C(C)=C/C(C)C(OC)C(O)CC1C (centres unmarked) [E-5-R] | 50 to 100 (≈ 91.5 to 183 µM) | 50 to 100 (≈ 91.5 to 183 µM) | 100 to 200 | lower toxicity | low toxicity
4 | COC1C2=CC(=O)C=C(NC(=O)C(C)=CC=CC(C)C(OC(N)=O)C(C)=CC(C)C(OC)C(O)CC1C)C2=O (centres unmarked) [E-5] | 50 to 100 (≈ 91.8 to 184 µM) | 50 to 100 (≈ 91.8 to 184 µM) |  |  | 
